In patent EP0358494B1, “Emulsifiable concentrate of a pesticide” (priority 1988, dated 1990):
Where two headings read alike, the source gives them in different places.

Assay: Solubility of water in the cosolvent (Table 1)
Assay type: physicochemical
Procedure: All of the compositions were prepared by simple mechanical agitation of the ingredients together, using a Silveron (Trade Mark) high shear mixer. The nature and water solubility of the various cosolvents employed are as noted in Table 1.

[1] = the cosolvent itself (neat solvent)

Row | Compound | Solubility of water in solvent (H20/Solv) [1] [% w/w] | Solubility of water in solvent (H20/Solv)
1 | CCSCc1ccccc1OC(=O)NC [ethiofencarb] | 0.18 | –
2 | COP(=S)(OC)Oc1ccc([N+](=O)[O-])c(C)c1 [fenitrothion] | 0.0014 | –
3 | xylene | – | 0.87% w/w
4 | CCOP(=S)(OCC)Oc1nc(Cl)c(Cl)cc1Cl [chlorpyrifos] | – | .0002% w/w
5 | COC(C)COC(C)CO (centres unmarked) [Dipropylene glycol monomethyl ether] | – | miscible
